Values joined by “and” are separate entries in the source; they are usually repeats but may differ in a detail not shown here. Equal values may be shown once.
Columns and labels:
[1] = target: human mu (MOR) opioid receptor (Homo sapiens (Human), UniProt P35372); assay: Radioligand competition binding assay, mu opioid receptor; details: 10 uM, [3H]Naloxone; read-out: Mu receptor % inhibition at single concentration
Protocol: The binding affinities of certain compounds of the present invention were evaluated using radioligand binding assays in membranes prepared from CHO-K1 cells expressing recombinant human kappa (KOR) or mu (MOR) opioid receptors.
Competition binding experiments were conducted by incubating membrane protein to equilibrium in triplicate in the presence of a fixed concentration of radioligand and increasing concentrations of test compound for evaluation of binding to KOR or single concentration (10 μM) of test compound for evaluation of binding to MOR in 101 μL final volume. The radioligands used were specific for each receptor type, and the assay conditions are described in Table 1. Following incubations, the membranes were rapidly filtered through GF/B filter plate (presoaked with 0.5% polyethyleneimine), washed five times with cold 50 mM Tris-HCl, pH 7.5, and the bound radioactivity was then measured by liquid scintillation counting. Non-specific binding was measured in the presence of excess ligand; this value was subtracted from the total binding to yield the specific binding at each test concentration.
Ki (affinity of test compound) was obtained using the Cheng Prusoff correction using experimental Kd (affinity of radioligand) values that were previously determined under these assay conditions. For MOR binding, compounds were tested at one concentration, 10 μM, to evaluate its ability to inhibit specific radioligand binding. The values are expressed as percent inhibition of specific binding and greater than 50% inhibition of binding was considered to be significant.
With respect to determining MOR binding, an approach similar to one used for KOR binding was used.

[2] = system: acetic acid-induced writhing (visceral pain) in mice; assay: Acetic acid writhing (AAW) analgesic assay; type: in vivo
Protocol: An analgesic assay was used to determine whether a given compound can reduce and/or prevent visceral pain in mice. The assay utilizes Swiss Albino or CD-1 male mice (5-10 mice per group), each mouse being approximately 0.015-0.030 kg on the study day. Mice were treated according to standard protocols.
The animal was given an intraperitoneal (IP) injection of an irritant (acetic acid) that induces “writhing” which may include: contractions of the abdomen, twisting and turning of the trunk, arching of the back and the extension of the hindlimbs. Mice are given a single IP injection (0.1 mL/10 g bodyweight) of a 0.5% acetic acid solution. After the injection the animals were returned to their observation enclosure and their behavior was observed. Contractions were counted between 0 and 20 minutes after the injection. The animals were used once. In certain instances, the test articles were administered at multiple doses to determine a dose response curve.
Table 4 provides the results for certain compounds of the present invention that were administered subcutaneously. Table 5 provides the results for certain compounds of the present invention that were administered orally.

[3] = system: locomotor activity of mice; assay: Locomotor activity; type: in vivo; details: oral, 30 min predose, 20 min observation
Protocol: Male Swiss Albino mice were treated orally with vehicle (0.5% HPMC+0.1% Tween80), ketazocine, Compound 12 (0.3, 3 and 30 mg/kg) or Compound 20 (0.3, 3 and 30 mg/kg) thirty minutes prior to placement in the locomotor activity chamber. Total distance travelled was measured over the twenty minute observation time following placement in the locomotor activity chamber. Data are normalized relative to percent distance travelled in the vehicle group. The efficacy of Compound 12 (reported as percent distance travelled in comparison to vehicle) was 88.85%, 83.74% and 0.08% at 0.3, 3 and 30 mg/kg dosages, respectively, while the locomotor activity of Compound 20 (reported as percent distance travelled in comparison to vehicle) was 100%, 88% and 0.03% at 0.3, 3 and 30 mg/kg dosages, respectively.

## COCCOCCOCCOCCOCCNc1ccc2c(c1)[C@]1(C)CCN(CC3CC3)[C@H](C2=O)[C@@H]1C [Example 2, (2S,6R,11R)-3-(Cyclopropylmethyl)-6,11-dimethyl-8-(2,5,8,11,14-pentaoxahexadecan-16-ylamino)-3,4,5,6-tetrahydro-2,6-methano-3-benzazocin-1(2H)-One]
[1]
  inhibition at 10 µM: 85.5%

## COCCOCCOCCOCCOCCOCCOCCNc1ccc2c(c1)[C@]1(C)CCN(CC3CC3)[C@H](C2=O)[C@@H]1C [Example 3, (2S,6R,11R)-3-(Cyclopropylmethyl)-8-(2,5,8,11,14,17,20-heptaoxadocosan-22-ylamino)-6,11-dimethyl-3,4,5,6-tetrahydro-2,6-methano-3-benzazocin-1 (2H)-One]
[1]
  inhibition at 10 µM: 80.6%

## COCCOCCOCCOCCOCCOc1ccccc1Nc1ccc2c(c1)[C@]1(C)CCN(CC3CC3)[C@H](C2=O)[C@@H]1C [Example 7, (2S,6R,11R)-8-((2-(2,5,8,11,14-pentaoxahexadecan-16-yloxy)phenyl)amino)-3-(cyclopropylmethyl)-6,11-dimethyl-3,4,5,6-tetrahydro-2,6-methanobenzo[d]azocin-1(2H)-one]
[2]; subcutaneous, 3 mg/kg
  AAW % Efficacy: 38.8%
[2]; subcutaneous, 30 mg/kg
  AAW % Efficacy: 84.8%

## COCCOCCOCCOCCOCCOc1cccc(Nc2ccc3c(c2)[C@]2(C)CCN(CC4CC4)[C@H](C3=O)[C@@H]2C)c1 [Example 8, (2S,6R,11R)-8-((3-(2,5,8,11,14-pentaoxahexadecan-16-yloxy)phenyl)amino)-3-(cyclopropylmethyl)-6,11-dimethyl-3,4,5,6-tetrahydro-2,6-methanobenzo[d]azocin-1(2H)-one]
[2]; Mus musculus, sc, subcutaneous, 30 mg/kg, read-out: AAW % Efficacy
  inhibition in vivo at 30 mg/kg: 100%
[2]; subcutaneous, 3 mg/kg
  AAW % Efficacy: 38.0%

## COCCOCCOCCOCCOCCOc1ccc(Nc2ccc3c(c2)[C@]2(C)CCN(CC4CC4)[C@H](C3=O)[C@@H]2C)cc1 [Example 9, (2S,6R,11R)-8-((4-(2,5,8,11,14-pentaoxahexadecan-16-yloxy)phenyl)amino)-3-(cyclopropylmethyl)-6,11-dimethyl-3,4,5,6-tetrahydro-2,6-methanobenzo[d]azocin-1(2H)-one]
[2]; oral, 10 mg/kg
  AAW % Efficacy: 38.5%
[2]; subcutaneous, 0.3 mg/kg
  AAW % Efficacy: 13.3%
[2]; subcutaneous, 3 mg/kg
  AAW % Efficacy: 67.8% and 61.4%
[2]; subcutaneous, 10 mg/kg
  AAW % Efficacy: 95.4%
[2]; subcutaneous, 30 mg/kg
  AAW % Efficacy: 99.2%

## COCCOCCOCCOCCOCCNc1ccc(Nc2ccc3c(c2)[C@]2(C)CCN(CC4CC4)[C@H](C3=O)[C@@H]2C)cc1 [Example 10, (2S,6R,11R)-8-((4-(2,5,8,11,14-pentaoxahexadecan-16-ylamino)phenyl)amino)-3 (cyclopropylmethyl)-6,11-dimethyl-3,4,5,6-tetrahydro-2,6-methanobenzo[d]azocin-1(2H)-one]
[2]; subcutaneous, 3 mg/kg
  AAW % Efficacy: 34.0%
[2]; subcutaneous, 30 mg/kg
  AAW % Efficacy: 100.0%

## COCCOCCOCCOCCOCCNc1cccc(Nc2ccc3c(c2)[C@]2(C)CCN(CC4CC4)[C@H](C3=O)[C@@H]2C)c1 [Example 11, (2S,6R,11R)-8-((3-(2,5,8,11,14-pentaoxahexadecan-16-ylamino)phenyl)amino)-3-(cyclopropylmethyl)-6,11-dimethyl-3,4,5,6-tetrahydro-2,6-methanobenzo[d]azocin-1(2H)-One]
[2]; oral, 10 mg/kg
  AAW % Efficacy: 31.2%
[2]; subcutaneous, 0.3 mg/kg
  AAW % Efficacy: 21.1%
[2]; subcutaneous, 3 mg/kg
  AAW % Efficacy: 62.2% and 64.3%
[2]; subcutaneous, 10 mg/kg
  AAW % Efficacy: 99.1%
[2]; subcutaneous, 30 mg/kg
  AAW % Efficacy: 100.0%

## COCCOCCOCCOCCOCCNc1ccc(Nc2ccc3c(c2)[C@]2(C)CCN(CC4CC4)[C@H](C3=O)[C@@H]2C)cc1 [Example 12, (2S,6R,11R)-8-((4-(2,5,8,11,14-pentaoxahexadecan-16-ylamino)phenyl)amino)-3-(cyclopropylmethyl)-6,11-dimethyl-3,4,5,6-tetrahydro-2,6-methanobenzo[d]azocin-1(2H)-one]
[3]; 0.3 mg/kg
  percent distance travelled in comparison to vehicle: 88.85%
[3]; 3 mg/kg
  percent distance travelled in comparison to vehicle: 83.74%
[3]; 30 mg/kg
  percent distance travelled in comparison to vehicle: 0.08%
[2]; oral, 0.1 mg/kg
  AAW % Efficacy: 22.5%
[2]; oral, 1 mg/kg
  AAW % Efficacy: 56.9%
[2]; oral, 10 mg/kg
  AAW % Efficacy: 97.2% and 90.2%
[2]; subcutaneous, 30 mg/kg
  AAW % Efficacy: 100.0%

## COCCOCCOCCOCCOCCNc1nc2cc3c(cc2s1)C(=O)[C@@H]1[C@H](C)[C@@]3(C)CCN1CC1CC1 [Example 13, (6S,10R,12R)-2-(2,5,8,11,14-pentaoxahexadecan-16-ylamino)-7-(cyclopropylmethyl)-10,12-dimethyl-7,8,9,10-tetrahydro-6,10-methanothiazolo[4′,5′:4,5]benzo[1,2-d]azocin-5(6H)-one]
[2]; subcutaneous, 10 mg/kg
  AAW % Efficacy: 40.2%

## COCCOCCN1CC[C@@]2(C)c3cc(O)ccc3C(=O)[C@@H]1[C@@H]2C [Example 14, (2S,6R,11R)-8-hydroxy-3-(2-(2-methoxyethoxy)ethyl)-6,11-dimethyl-3,4,5,6-tetrahydro-2,6-methanobenzo[d]azocin-1(2H)-One]
[2]; subcutaneous, 10 mg/kg
  AAW % Efficacy: 13.2%

## COCCOCC(=O)Nc1ccc2c(c1)[C@]1(C)CCN(CC3CC3)[C@H](C2=O)[C@@H]1C [Example 15, N-((2S,6R,11R)-3-(cyclopropylmethyl)-6,11-dimethyl-1-oxo-1,2,3,4,5,6-hexahydro-2,6-methanobenzo[d]azocin-8-yl)-2-(2-methoxyethoxy)acetamide]
[2]; subcutaneous, 10 mg/kg
  AAW % Efficacy: 100.0%

## COCCNC(=O)c1ccc2c(c1)[C@]1(C)CCN(CC3CC3)[C@H](C2=O)[C@@H]1C [Example 16, (2S,6R,11R)-3-(cyclopropylmethyl)-N-(2-methoxyethyl)-6,11-dimethyl-1-oxo-1,2,3,4,5,6-hexahydro-2,6-methanobenzo[d]azocine-8-carboxamide]
[2]; subcutaneous, 10 mg/kg
  AAW % Efficacy: 26.4%

## COCCOCC(=O)NCc1ccc2c(c1)[C@]1(C)CCN(CC3CC3)C(C2=O)[C@@H]1C [Example 17, N,N-(((2S,6R,11R)-3-(cyclopropylmethyl)-6,11-dimethyl-1-oxo-1,2,3,4,5,6-hexahydro-2,6-methanobenzo[d]azocin-8-yl)methyl)-2-(2-methoxyethoxy)acetamide]
[2]; subcutaneous, 10 mg/kg
  AAW % Efficacy: 23.3%

## COCCOCCNCc1ccc2c(c1)[C@]1(C)CCN(CC3CC3)[C@H](C2=O)[C@@H]1C [Example 18, (2S,6R,11R)-3-(cyclopropylmethyl)-8-(((2-(2-methoxyethoxy)ethyl)amino)methyl)-6,11-dimethyl-3,4,5,6-tetrahydro-2,6-methanobenzo[d]azocin-1(2H)-one]
[2]; subcutaneous, 10 mg/kg
  AAW % Efficacy: 31.9%

## COCCOCCOCCOCCOCCOc1c(O)ccc2c1[C@]1(C)CCN(CC3CC3)[C@H](C2=O)[C@@H]1C [Example 19, (2S,6R,11R)-7-(2,5,8,11,14-pentaoxahexadecan-16-yloxy)-3-(cyclopropylmethyl)-8-hydroxy-6,11-dimethyl-3,4,5,6-tetrahydro-2,6-methanobenzo[d]azocin-1(2H)-one]
[2]; subcutaneous, 10 mg/kg
  AAW % Efficacy: 31.6%

## C[C@H]1[C@H]2C(=O)c3ccc(Nc4ccc(NCCOCCOCCOCCOCCOC(F)(F)F)cc4)cc3[C@]1(C)CCN2CC1CC1 [Example 20, (2S,6R,11R)-3-(cyclopropylmethyl)-6,11-dimethyl-8-((4-((1,1,1-trifluoro-2,5,8,11,14-pentaoxahexadecan-16-yl)amino)phenyl)amino)-3,4,5,6-tetrahydro-2,6-methanobenzo[d]azocin-1(2H)-One]
[3]; 0.3 mg/kg
  percent distance travelled in comparison to vehicle: 100%
[3]; 3 mg/kg
  percent distance travelled in comparison to vehicle: 88%
[3]; 30 mg/kg
  percent distance travelled in comparison to vehicle: 0.03%
[2]; oral, 0.3 mg/kg
  AAW % Efficacy: 39.1%
[2]; oral, 3 mg/kg
  AAW % Efficacy: 79.5%
[2]; oral, 30 mg/kg
  AAW % Efficacy: 100.0%
[2]; subcutaneous, 10 mg/kg
  AAW % Efficacy: 88.1%

## C[C@H]1[C@H]2C(=O)c3cc4sc(N)nc4cc3[C@]1(C)CCN2CC1CC1 [Step 1 of 13, (6S,10R,12R)-2-amino-7-(cyclopropylmethyl)-10,12-dimethyl-7,8,9,10-tetrahydro-6,10-methanothiazolo[4′,5′:4,5]benzo[1,2-d]azocin-5(6H)-One]
[2]; subcutaneous, 10 mg/kg
  AAW % Efficacy: 100%

Source: US10081602B2, “Opioid agonists and uses thereof” (Nektar Therapeutics, priority 2013, dated 2018)
